Experimental data from article PMC12123366, “Effect of urea and squaramide IMPDH inhibitors on C. parvum: in vitro trial design impacts the assessment of drug efficacy” (International Journal for Parasitology: Drugs and Drug …, 2025).

What was measured:
[1] = CytoTox 96 Non-Radioactive Cytotoxicity Assay; format: cell-based, Human; conditions: human; HCT-8 cells, 10 µM
Method: (§1) HCT-8 cell lines (Human ileocecal adenocarcinoma) were purchased from The European Collection of Authenticated Cell Cultures (ECACC) under catalogue number No 90032006) and maintained with regular subculturing in a growth medium consisting in a RPMI 1640 medium supplemented with 1 mM sodium pyruvate, 2 mM l-glutamine, 10 % (vol/vol) of heat-inactivated fetal calf serum, 100 U/mL of penicillin and 100 μg/mL of streptomycin. Cells were grown in an incubator at 37 °C with 5 % (vol/vol) CO2 until monolayers reached 80–90 % confluency. Cells were cultivated in 96-well format plate for molecular analysis and in Lab-Tek™ Chamber Slides for microscopic analysis. 50,000 cells were seeded and incubated during 24 h (until confluency) before infection.
(§2) The compounds (2 mg/mL in DMSO) were diluted to 500 μM and serially diluted in maintenance medium. The cytotoxicity of the compounds was assessed using the CytoTox 96® Non-Radioactive Cytotoxicity Assay (Promega, G1790) in accordance with the manufacturer's protocol.
(§3) An initial screening experiment was conducted on the full library to evaluate the cytotoxicity effects on HCT-8 cells. Nitrophenylurea 12 was identified as being cytotoxic so was not progressed further (See Supporting Information). In total, 21 candidates were assessed for their ability to inhibit C. parvum replication at a concentration of 10 μM. Each compound was added at the start of the infection of HCT-8 cells (T0) and remained in the culture for 48 h post infection (hpi). Parasitic quantification was then performed using a molecular method (qPCR). Of the 21 compounds tested, nine were effective inhibitors, reducing parasite proliferation by 80 % or more (Fig. 6). A clear trend emerged with all of the benzyl-substituted ureas 6–10 displaying poor inhibitory activity, regardless of the attached heteroaryl substituent. […] Two exceptions to this were imidazole-containing analogues 18 and 19. […] Among the squaramide series, the results were highly dependent on the nature of the substituent, ranging from high (e.g. ketone 29, furan 32), medium (e.g. 3-pyrazole 30) to low (e.g. 4-pyrazole 31) anti-cryptosporidial activity.

HCT-8 cells = experiment: CytoTox 96 Non-Radioactive Cytotoxicity Assay; format: cell-based, Human; conditions: initial screening
Method: as §1, §2, §3

With `CC(C)(NC(=O)Nc1ccc(Cl)c([N+](=O)[O-])c1)c1cccc(-c2cccc([N+](=O)[O-])c2)c1` [Compound 12, 1-(4-chloro-3-nitrophenyl)-3-(2-(3′-nitro-[1,1′-biphenyl]-3-yl)propan-2-yl)urea] the viability at 10 µM [1] was 58% and the “cytotoxicity (in words)” value (HCT-8 cells) was “cytotoxic”.
